Substitutions are numbered along the chain they refer to. In names and notes the source's numbering stands. Entries after “also recorded” stand apart in the source; their conditions may differ.
T1: human ZnT8 R325 (R-form) (Homo sapiens, UniProt Q8IWU4)
T1 construct: The human ZnT8 cDNA insert was further subcloned into a pcDNA5/FRT/TO expression vector; made in house
T1 sequence (Q8IWU4 1-320 isoform Q8IWU4-2): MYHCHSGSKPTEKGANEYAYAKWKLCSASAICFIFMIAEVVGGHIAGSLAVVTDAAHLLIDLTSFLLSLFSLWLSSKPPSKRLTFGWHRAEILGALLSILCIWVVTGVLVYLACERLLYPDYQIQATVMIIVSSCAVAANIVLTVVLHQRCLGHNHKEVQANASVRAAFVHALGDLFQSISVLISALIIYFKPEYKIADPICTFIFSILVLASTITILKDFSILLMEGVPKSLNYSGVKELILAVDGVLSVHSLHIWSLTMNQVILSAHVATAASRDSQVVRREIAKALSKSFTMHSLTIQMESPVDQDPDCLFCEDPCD

T2: human ZnT8 W325 (W-form) (Homo sapiens, UniProt Q8IWU4, R325W)
T2 construct: The human ZnT8 cDNA insert was further subcloned into a pcDNA5/FRT/TO expression vector; made in house
T2 sequence (Q8IWU4 1-320 isoform Q8IWU4-2 R276W): T1 sequence (Q8IWU4 1-320 isoform Q8IWU4-2) with R276W

T3: human ZnT8 AA-form (H220A, D224A) (Homo sapiens, UniProt Q8IWU4, D224A/H220A)
T3 construct: The human ZnT8 cDNA insert was further subcloned into a pcDNA5/FRT/TO expression vector; made in house
T3 sequence (Q8IWU4 1-320 isoform Q8IWU4-2 H171A/D175A): T1 sequence (Q8IWU4 1-320 isoform Q8IWU4-2) with H171A, D175A

B1: AA-form: His-tagged human ZnT8 with H220A, D224A double mutation of the predicted transport-site (protein, UniProt Q8IWU4 1-369, looked up, variant H220A D224A)
Proton-coupled zinc …: MEFLERTYLVNDKAAKMYAFTLESVELQQKPVNKDQCPRERPEELESGGMYHCHSGSKPTEKGANEYAYAKWKLCSASAICFIFMIAEVVGGHIAGSLAVVTDAAHLLIDLTSFLLSLFSLWLSSKPPSKRLTFGWHRAEILGALLSILCIWVVTGVLVYLACERLLYPDYQIQATVMIIVSSCAVAANIVLTVVLHQRCLGHNHKEVQANASVRAAFVAALGALFQSISVLISALIIYFKPEYKIADPICTFIFSILVLASTITILKDFSILLMEGVPKSLNYSGVKELILAVDGVLSVHSLHIWSLTMNQVILSAHVATAASRDSQVVRREIAKALSKSFTMHSLTIQMESPVDQDPDCLFCEDPCD
modifications: His tag
notes: His-tagged human ZnT8 with H220A, D224A double mutation of the predicted transport-site

Legend:
human ZnT8 R325 (R-form) = target: T1, human ZnT8 R325 (R-form); experiment: Stopped-flow zinc transport kinetics in reconstituted proteoliposomes (Fluozin-3), R325 variant; format: biochemical; conditions: for effect on zinc transport activity (Vmax), R-form: lipid in reconstituted proteoliposomes, reference level = Vmax of the AA-form; for increase of Vmax, R-form: third anionic phospholipid added to DOPC:DOPE (2:1), giving 2:1:1
Description: (§1) 24 hour after induction, early-passage cells (passage number <10) at 90% confluence were scraped on ice and collected in the assay buffer supplemented with complete mini EDTA free protease cocktail tablets as specified by the manufacturer (Sigma). Cell suspension was homogenized by 40 passages through a high-shear fluid processor at 120 psi (Microfluidics), and then the membrane fraction was pelleted by ultracentrifugation at 258k×g for 60 min. The membrane pellet was re-suspended in a solubilization buffer (assay buffer plus 25% glycerol). DDM was added to solubilize the membrane according to the weight of the membrane pellet at a DDM-to-membrane ratio of 1:5 (wt/wt). The membrane crude extract was cleared off debris by ultracentrifugation at 258k×g for 15 min. The supernatant was applied to Talon affinity resins (GE Healthcare) and incubated at 8° C. on a rotary shaker for 45 min. The resin was then minimally washed by solubilization buffer supplemented with 25 mM imidazole, and then the immobilized ZnT8 variant was eluted by increasing the imidazole concentration to 250 mM. The molecular identity of the eluted ZnT8 variant was validated by western blotting using two antibodies to the C-terminal His-tag (Cell signaling Technology, cat. #2365S, catalog number, 1:1000 dilution) and to a linear peptide epitope (Proteintech, cat. #16169-1-AP, 1:500 dilution), respectively. The purity of the eluted proteins was assessed by SDS-PAGE with imperial protein staining (Thermo Scientific). Preformed liposomes with a defined lipid composition as indicated were prepared by mixing stock solutions of lipids in chloroform. The lipid mixture was dried under a stream of nitrogen gas, and traces of chloroform were removed by placing the lipids under vacuum overnight at room temperature. Dried lipids were rehydrated in a Pyrex borosilicate glass tube with assay buffer to a lipid concentration of 50 mg/ml, and then sonicated in a cup-horn sonicator at 100 W for 2 min (cycles of 10 son, 10 s off) in an ice-chilled water bath. The resulting liposome suspension was diluted with assay buffer to a final lipid concentration of 7.5 mg/ml with DDM added at a DDM/lipids ratio of 1:1 (wt/wt). The DDM-liposome mixture was incubated at room temperature on a rotary shaker for ˜3 hours until a gel-like appearance occurred. Reconstitution of ZnT8 variants took place immediately after eluted from Talon resins by mixing a ZnT8 variant, or an equal volume of elution buffer, with DDM-destabilized preformed liposomes at an estimated protein-to-lipid wt/wt ratio of 1:200. The reconstitution mixture was incubated on a rotary shaker at 8° C. for 1 hr, then freshly prepared, methanol-washed polystyrene beads (Bio-Beads, SM-2, Bio-Rad) were added to the reconstitution mixture in a 60:1 wt/wt ratio to DDM. After incubation overnight at 8° C., the resulting proteoliposomes or liposomes (negative control) were separated from the detergent-soaked polystyrene beads, and pelleted by ultracentrifugation (258k×g, 2 hr). […]
(§2) Experiments were performed at 8° C. on a SFM-3000 stopped-flow apparatus (Bio-logic). […] The reactants were excited at 490 nm, and emissions were monitored at 525 nm using a 10 nm bandpass cut-off filter. Kinetic traces were recorded over a time course of 10 seconds with instrument offset and gain kept constant for all the experiments. […]

human ZnT8 W325 (W-form) = target: T2, human ZnT8 W325 (W-form); experiment: Stopped-flow zinc transport kinetics in reconstituted proteoliposomes (Fluozin-3), W325 variant; format: biochemical; conditions: for effect on zinc transport activity (Vmax), W-form: lipid in reconstituted proteoliposomes, reference level = Vmax of the AA-form; for increase of Vmax, W-form: third anionic phospholipid added to DOPC:DOPE (2:1), giving 2:1:1
Description: as §1, §2

[1] = target: T3, human ZnT8 AA-form (H220A, D224A); experiment: Stopped-flow zinc transport kinetics in reconstituted proteoliposomes (Fluozin-3), AA-form; format: biochemical
Description: 24 hour after induction, early-passage cells (passage number <10) at 90% confluence were scraped on ice and collected in the assay buffer supplemented with complete mini EDTA free protease cocktail tablets as specified by the manufacturer (Sigma). Cell suspension was homogenized by 40 passages through a high-shear fluid processor at 120 psi (Microfluidics), and then the membrane fraction was pelleted by ultracentrifugation at 258k×g for 60 min. The membrane pellet was re-suspended in a solubilization buffer (assay buffer plus 25% glycerol). DDM was added to solubilize the membrane according to the weight of the membrane pellet at a DDM-to-membrane ratio of 1:5 (wt/wt). The membrane crude extract was cleared off debris by ultracentrifugation at 258k×g for 15 min. The supernatant was applied to Talon affinity resins (GE Healthcare) and incubated at 8° C. on a rotary shaker for 45 min. […] The purity of the eluted proteins was assessed by SDS-PAGE with imperial protein staining (Thermo Scientific). […]
as §2

HEK293 cells = experiment: Vesicular zinc uptake in real time (Zinpyr-1, 96-well microplate); format: cell-based, human; conditions: 383 nM free zinc, 1 uM pyrithione, 15° C., induced expression
Description: The free zinc concentration in the ADA-EGTA dual buffering system was calculated using maxchelator (maxchelator.stanford.edu). Induced cells were loaded with Zinpry-1, trypsinized, resuspended in an ice-chilled plain uptake buffer with no ZnSO4 added. Cells with the expression of each ZnT8 variant or the empty vector were counted, adjusted to a density of 4×10^6 cells/ml, and dispensed in 50-[…] aliquots to a clear-bottom 96-well microplate (Greiner bio-one). Initial Zinpry-1 fluorescence (F0) was recorded from the bottom on a Flexstation-3 microplate reader (Molecular dynamics), and then zinc-uptakes were initiated by adding 50 ul uptake buffers with 2× free zinc concentrations to each well. The Zinpry-1 fluorescence increases in response to various free zinc concentrations were recorded at 15° C. in the kinetic mode of Flexstation over a time course of 10 min and normalized to Zinpyr-1 loading (F0). The fluorescence responses reached a linear phase in 2 min after the uptake temperature approached equilibrium. The rates of zinc uptake were calculated by linear regression of the Zinpyr-1 signals from 2 to 10 min. All measurements were performed in 12 replicates, and fluorescence readings were obtained by averaging over 8-10 measurements that gave consistent results. Most aberrant measurements occurred in the first and last two columns of the microplate due to pipetting errors.

Row | Molecule | effect on zinc transport activity (Vmax), R-form (human ZnT8 R325 (R-form)) | effect on zinc transport activity (Vmax), W-form (human ZnT8 W325 (W-form)) | increase of Vmax, R-form (human ZnT8 R325 (R-form)) [fold] | increase of Vmax, W-form (human ZnT8 W325 (W-form)) [fold] | further results
1 | CCCCCCCC/C=C\CCCCCCCC(=O)OC[C@H](COP(=O)(O)OCCN)OC(=O)CCCCCCC/C=C\CCCCCCCC [DOPE, 1,2-di-(9Z-octadecenoyl)-sn-glycero-3-phosphoethanolamine] | progressively reduced the Vmax | modest effects |  |  | 
2 | CCCCCCCC/C=C\CCCCCCCC(=O)OC[C@H](COP(=O)(O)OCC(O)CO)OC(=O)CCCCCCC/C=C\CCCCCCCC (stereo partly shown) [DOPG] |  |  | 6.1 | 2.0 | 
3 | CCCCCCCC/C=C\CCCCCCCC(=O)OC[C@H](COP(=O)(O)OC[C@H](N)C(=O)O)OC(=O)CCCCCCC/C=C\CCCCCCCC [DOPS, 1,2-dioleoyl-sn-glycero-3-phospho-L-serine] |  |  | 3.5 | 2.3 | 
4 | CC(C)CCC[C@@H](C)[C@H]1CC[C@H]2[C@@H]3CC=C4C[C@@H](O)CC[C@]4(C)[C@H]3CC[C@]12C [cholesterol] | below the reference level of the AA-form; also recorded: strongly inhibit | below the reference level of the AA-form; also recorded: strongly inhibit |  |  | 
5 | Lysophosphatidylcholine [LPC] | below the reference level of the AA-form; also recorded: strongly inhibit | below the reference level of the AA-form; also recorded: strongly inhibit |  |  | 
6 | B1 |  |  |  |  | Km increase compared to the R-form [1]: 24 fold; Vmax/Km decrease compared to the R-form [1]: 59 fold; rate of vesicular zinc accumulation (HEK293 cells): significantly faster than the basal level of Blk

— patent US11016085B2, “ZNT8 assays for drug development and pharmaceutical compositions” (THE JOHNS HOPKINS UNIVERSITY, priority 2016, dated 2021)
